# Reference: US8802597B2, “Herbicidal pyrimidines” (E I du Pont de Nemours and Company, priority 2003, dated 2014)
# Experiments:
# Assay type in all cases: in vivo
# [1] = test system: barnyardgrass (Echinochloa crus-galli); test: Test A pre/postemergence
# How it was run: (§1)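 Ratings: 0 = no effect, 100 = complete control, assessed visually about ten days post-treatment in a greenhouse. Applications: soil-directed preemergence spray and postemergence spray on 1- to 2-leaf plants, both using a surfactant-containing non-phytotoxic solvent formulation.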
# [2] = test system: crabgrass (Digitaria sanguinalis); test: Test A pre/postemergence
# How it was run: as §1
# [3] = test system: bermudagrass (Cynodon dactylon); test: Test C pre/postemergence; conditions: Postemergence; for Bermudagrass plant response rating: scale 0 to 100 (0 no effect, 100 complete control)
# How it was run: (§2)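 Test compounds, formulated in a non-phytotoxic solvent mix with surfactant, were applied to freshly planted seeds and, at the same time, to emerged plants at 1- to 4-leaf stage (2 to 18 cm). After 12 to 14 days in the greenhouse, response was scored visually versus controls, 0 = no effect, 100 = complete control.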
# [4] = test system: common ragweed (Ambrosia elatior); test: Test C pre/postemergence; conditions: Postemergence
# How it was run: as §2
# [5] = test system: goosegrass (Eleusine indica); test: Test C pre/postemergence; conditions: Postemergence
# How it was run: as §2
# [6] = test system: pigweed (Amaranthus retroflexus); test: Test C pre/postemergence; conditions: Postemergence
# How it was run: as §2
# [7] = test system: velvetleaf (Abutilon theophrasti); test: Test C pre/postemergence; conditions: Postemergence
# How it was run: as §2
# [8] = test system: woolly cupgrass (Eriochloa villosa); test: Test C pre/postemergence; conditions: Postemergence
# How it was run: as §2
# [9] = test system: yellow nutsedge (Cyperus esculentus); test: Test C pre/postemergence; conditions: Postemergence
# How it was run: as §2
# [10] = test system: chickweed (Stellaria media); test: Test C postemergence
# How it was run: as §2
# [11] = Postemergence, 125 g ai/ha, 0 to 100 scale (0 no effect, 100 complete control)
# [12] = Postemergence, 500 g ai/ha, 0 to 100 scale (0 no effect, 100 complete control)
# [13] = Preemergence, 125 g ai/ha, 0 to 100 scale where 0 is no effect and 100 is complete control, approximately ten days
# [14] = Preemergence, 500 g ai/ha, 0 to 100 scale where 0 is no effect and 100 is complete control, approximately ten days
# [15] = 125 g ai/ha, scale 0 to 100 (0 no effect, 100 complete control)
smiles,measurement,setting,value
CCOC(=O)c1nc(-c2ccc(I)cc2)nc(N)c1Cl [Compound 133],"Plant response rating, Barnyardgrass",[1]; [11],10
same,"Plant response rating, Barnyardgrass",[1]; [12],40
same,"Plant response rating, Barnyardgrass",[1]; [13],0
same,"Plant response rating, Barnyardgrass",[1]; [14],15
same,"Plant response rating, Crabgrass",[2]; [11],30
same,"Plant response rating, Crabgrass",[2]; [12],55
same,"Plant response rating, Crabgrass",[2]; [13],0
same,"Plant response rating, Crabgrass",[2]; [14],45
same,"Plant response rating (scale of 0 to 100), Bermudagrass",[3]; 16 g ai/ha,50
same,"Plant response rating (scale of 0 to 100), Bermudagrass",[3]; 31 g ai/ha,85
same,Bermudagrass plant response rating,[3]; 62 g ai/ha,85
same,Bermudagrass plant response rating,[3]; 125 g ai/ha,85
same,"Plant response rating (scale of 0 to 100), Ragweed",[4]; 16 g ai/ha,80
same,"Plant response rating (scale of 0 to 100), Ragweed",[4]; 31 g ai/ha,80
same,"Plant response rating (scale of 0 to 100), Ragweed",[4]; 62 g ai/ha,85
same,Ragweed plant response rating,[4]; [15],95
same,"Plant response rating (scale of 0 to 100), Goosegrass",[5]; 16 g ai/ha,15
same,"Plant response rating (scale of 0 to 100), Goosegrass",[5]; 31 g ai/ha,55
same,"Plant response rating (scale of 0 to 100), Goosegrass",[5]; 62 g ai/ha,65
same,Goosegrass plant response rating,[5]; [15],70
same,"Plant response rating (scale of 0 to 100), Pigweed",[6]; 16 g ai/ha,85
same,"Plant response rating (scale of 0 to 100), Pigweed",[6]; 31 g ai/ha,85
same,"Plant response rating (scale of 0 to 100), Pigweed",[6]; 62 g ai/ha,95
same,Pigweed plant response rating,[6]; [15],100
same,"Plant response rating (scale of 0 to 100), Velvetleaf",[7]; 16 g ai/ha,80
same,"Plant response rating (scale of 0 to 100), Velvetleaf",[7]; 31 g ai/ha,85
same,"Plant response rating (scale of 0 to 100), Velvetleaf",[7]; 62 g ai/ha,85
same,Velvetleaf plant response rating,[7]; [15],95
same,"Plant response rating (scale of 0 to 100), Cupgrass, Woolly",[8]; 16 g ai/ha,35
same,"Plant response rating (scale of 0 to 100), Cupgrass, Woolly",[8]; 31 g ai/ha,50
same,"Plant response rating (scale of 0 to 100), Cupgrass, Woolly",[8]; 62 g ai/ha,60
same,"Cupgrass, Woolly plant response rating",[8]; [15],70
same,"Plant response rating (scale of 0 to 100), Nutsedge, Yellow",[9]; 16 g ai/ha,60
same,"Plant response rating (scale of 0 to 100), Nutsedge, Yellow",[9]; 31 g ai/ha,75
same,"Plant response rating (scale of 0 to 100), Nutsedge, Yellow",[9]; 62 g ai/ha,75
same,"Nutsedge, Yellow plant response rating",[9]; [15],80
same,"Plant response rating (scale of 0 to 100), Chickweed",[10]; 16 g ai/ha,0
same,"Plant response rating (scale of 0 to 100), Chickweed",[10]; 31 g ai/ha,10
same,"Plant response rating (scale of 0 to 100), Chickweed",[10]; 62 g ai/ha,20
same,Chickweed plant response rating,[10]; [15],45
